One block for each compound: values may come before it.
Key:
GECFINDER-Glu = biological target: T1, GECFINDER-Glu (Bacillus subtilis, UniProt P39845); assay: Fluorescence dose-response of purified cpEGFP sensors (0.75 uM) in 100 mM Tris-HCl pH 7.5, room temperature, 1 mM ATP, 2.5 mM MgCl2; excitation 400, 460 or 480 nm by sensor, emission 510 nm; logistic five-parameter fit.; assay type: biochemical; conditions: n = 3
T1 construct: gene ppsA; PpsA-GluA-PCP; cpEGFP inserted, linkers HS-WL
Description: (§1) Fig. 3 Dose–response curves and fluorescence spectrums of […]s. a, c, e, g, i, k Dose–response curve of purified […]s with increasing concentrations of ligand in 100 mM Tris-HCl buffer (pH=7.5). The normalized ΔF/F0 value increased after ligand binding. All data shown are mean ± S.D. (n = 3 biologically independent samples). b, d, f, h, j, l The fluorescence spectra of […]s changed as the ligand concentration increased. All data shown are mean ± S.D. (n = 3 biologically independent samples). Source data are provided as a Source data file.
(§2) The study conducted dose–response curve, substrate specificity, and fluorescent spectrum analyses in 100-mM Tris buffer (pH = 7.5), while pH stability experiments were performed in 100-mM Tris buffer at three different pH values (6.5, 7.5, and 8.5) at room temperature. […] protein at a concentration of 0.75 μM, various small molecule concentrations, 1 mM ATP, and 2.5 mM MgCl2 were used in the experiments. Fluorescent signals were detected using a Microplate Reader (Synergy H4, Bio Tek) at an excitation/emission wavelength of 460 nm/510 nm or 480 nm/510 nm. The dose-response curve was determined immediately after the addition of the analyte. The total duration of the measurement was 15 min, with readings taken at one-minute intervals. The dose-response curve was plotted using the fluorescence values obtained after achieving stability in the fluorescence signal. The dose-response curves were fitted using the logistic model LOGISTIC5 available in Origin 2021, which could provide a more adequate fit to asymmetric dose-response data[62],[63]. Excitation spectra were scanned from 300 to 540 nm with a step size of 5 nm, and the emission wavelength was set to 560 nm. Emission spectra were scanned from 470 to 700 nm with a step size of 5 nm, and the excitation wavelength was set to 450 nm. The thermal stability of […] was analyzed using the UNcle multifunctional protein stability analysis system. Measurements were performed in 20 mM MOPS buffer with 2 mM DTT at a sample concentration of 1 mg/mL. Absolute fluorescence quantum yields were measured using an absolute photoluminescence quantum yield spectrometer (FS5, Edinburgh).

[1] = Dose–response curve of purified […] with glutamic acid; assay type: biochemical; design: key: normalized ΔF/F0 (fluorescence change relative to baseline F0)
Description: as §1, §2

[2] = Substrate (ligand) specificity of […]s; assay type: biochemical; conditions: Supplementary Fig. 3 c; substrate specificity
Description: (§3) Fig. 4 Engineering ligand specificity of GrsA-PheA for generating […]s. a The selectivity-conferring code of Phe and Leu A domains. b–f Dose–response curve of purified […]s with increasing concentrations of ligands in 100 mM Tris-HCl buffer (pH=7.5). All data shown are means ± S.D. (n = 3 biologically independent samples). g A series of […] reactions was tested to show the […]’s specificity with 20 proteinogenic amino acids. The values on the heatmap represent the ΔF/F0 value normalized to each […]’s maximal ΔF/F0 value ((ΔF/F0)/maximal ΔF/F0). The concentrations of 20 amino acids were 100 μM. The color indicates the average value of three independent biological replicates after 15 min. All data shown are means ± S.D. (n = 3 biologically independent samples). Source data are provided as a Source data file.
Ligand specificity is an important biosensors feature. Generally, the NRPS A domains have high specificity for their substrates because they are the first “gatekeeper” of NRPSs and ensure that the correct monomers are activated and thioesterified[32],[33]. Therefore, we speculated that this property would be inherited by our […]s because the ligand-binding pockets were unchanged during the […] creation process. Twenty proteinogenic amino acids were used to test the ligand specificity of […]s. […] We also investigated the dependence of […]s on Mg^2+ and ATP (Supplementary Fig. 4). […] This phenomenon corroborates with the distinct conformational changes observed in Hinge A of Nt4CL2 (Mg^2++ATP) (PDB ID: 5BSM) and Nt4CL2 (Coumaroyl-AMP) (PDB ID: 5BST) reported in the literature (Supplementary Fig. 4k), where the direction of motion in hinge A differs. […] During the determination of quantum yield, we observed that the absolute quantum yield of the […] variants ranged from 0.3 to 0.6 upon addition of the respective substrates, which show no significant difference with that reported in literature. The specific values are provided in Supplementary Table 2.
as §2

[3] = Fluorescence spectra / excitation wavelength scan of […]s; assay type: physicochemical; conditions: Wavelength 300 nm
Description: Fig. 3 Dose–response curves and fluorescence spectrums of […]s. a, c, e, g, i, k Dose–response curve of purified […]s with increasing concentrations of ligand in 100 mM Tris-HCl buffer (pH=7.5). […] All data shown are mean ± S.D. (n = 3 biologically independent samples). Source data are provided as a Source data file.
as §2

[4] = Response of purified […] to proline; assay type: biochemical
Description: as §1, §2

GECFINDER-SβF = assay: Fluorescence dose-response of purified binding-pocket-engineered sensors (0.75 uM) in 100 mM Tris-HCl pH 7.5, room temperature, 1 mM ATP, 2.5 mM MgCl2, excitation 460 or 480 nm, emission 510 nm; logistic five-parameter fit.; assay type: biochemical; conditions: n = 3
Description: as §3, §2

T1 sequence (P39845 434-1036): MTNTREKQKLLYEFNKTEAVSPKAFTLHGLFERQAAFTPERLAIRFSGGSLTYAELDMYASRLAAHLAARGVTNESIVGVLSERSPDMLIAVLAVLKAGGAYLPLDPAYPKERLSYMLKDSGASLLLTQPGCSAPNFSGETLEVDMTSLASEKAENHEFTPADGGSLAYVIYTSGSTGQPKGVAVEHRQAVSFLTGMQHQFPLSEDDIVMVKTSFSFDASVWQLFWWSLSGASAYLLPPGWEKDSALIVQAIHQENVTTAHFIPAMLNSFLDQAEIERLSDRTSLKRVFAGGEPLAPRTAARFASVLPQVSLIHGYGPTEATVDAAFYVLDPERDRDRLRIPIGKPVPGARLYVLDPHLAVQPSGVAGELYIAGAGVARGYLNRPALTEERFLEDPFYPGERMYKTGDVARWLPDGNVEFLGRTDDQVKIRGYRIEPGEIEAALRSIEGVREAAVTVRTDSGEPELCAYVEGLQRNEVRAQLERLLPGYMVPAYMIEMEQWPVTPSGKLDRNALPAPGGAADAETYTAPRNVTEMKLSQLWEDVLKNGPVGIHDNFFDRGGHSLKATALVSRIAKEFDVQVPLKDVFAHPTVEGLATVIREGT

SMILES: N[C@@H](CCC(=O)O)C(=O)O [Glu, glutamic acid]
EC50 (GECFINDER-Glu): 42.9 ± 3.93 µM

SMILES: N[C@@H](CCC(=O)O)C(=O)O [Glu]
Dose-response, AVE of Repeat 1-3 (Fig. 3 e) ([1]; Glu 0.1 μM): 0 | Dose-response, AVE of Repeat 1-3 (Fig. 3 e) ([1]; Glu 1 μM): 0.02632 | Dose-response, AVE of Repeat 1-3 (Fig. 3 e) ([1]; Glu 2 μM): 0.0378 | Dose-response, AVE of Repeat 1-3 (Fig. 3 e) ([1]; Glu 5 μM): 0.1147 | Dose-response, AVE of Repeat 1-3 (Fig. 3 e) ([1]; Glu 10 μM): 0.1961 | Dose-response, AVE of Repeat 1-3 (Fig. 3 e) ([1]; Glu 20 μM): 0.322 | Dose-response, AVE of Repeat 1-3 (Fig. 3 e) ([1]; Glu 50 μM): 0.5379 | Dose-response, AVE of Repeat 1-3 (Fig. 3 e) ([1]; Glu 100 μM): 0.6984 | Dose-response, AVE of Repeat 1-3 (Fig. 3 e) ([1]; Glu 200 μM): 0.8758 | Dose-response, AVE of Repeat 1-3 (Fig. 3 e) ([1]; Glu 500 μM): 1.002 | Dose-response, AVE of Repeat 1-3 (Fig. 3 e) ([1]; Glu 750 μM): 0.9874 | Dose-response, AVE of Repeat 1-3 (Fig. 3 e) ([1]; Glu 1000 μM): 0.9487 | fluorescence response of GECFINDER to each substrate, AVE of 3 repeats [2]: -0.007518 | Wavelength scan, AVE of Repeat 1-3 (Fig. 3 f) ([3]; 0.1 μM Glu): 86.3333 | Wavelength scan, AVE of Repeat 1-3 (Fig. 3 f) ([3]; 5 μM Glu): 106 | Wavelength scan, AVE of Repeat 1-3 (Fig. 3 f) ([3]; 500 μM Glu): 120.667

SMILES: O=C(O)[C@@H]1CCCN1 [Pro]
Dose-response, AVE of Repeat 1-3 (Fig. 3 g) ([4]; Pro 0.0002 μM): -7.17e-17 | Dose-response, AVE of Repeat 1-3 (Fig. 3 g) ([4]; Pro 0.002 μM): 0.0174 | Dose-response, AVE of Repeat 1-3 (Fig. 3 g) ([4]; Pro 0.02 μM): 0.02154 | Dose-response, AVE of Repeat 1-3 (Fig. 3 g) ([4]; Pro 0.2 μM): 0.03875 | Dose-response, AVE of Repeat 1-3 (Fig. 3 g) ([4]; Pro 2 μM): 0.04783 | Dose-response, AVE of Repeat 1-3 (Fig. 3 g) ([4]; Pro 20 μM): 0.05475 | Dose-response, AVE of Repeat 1-3 (Fig. 3 g) ([4]; Pro 100 μM): 0.06466 | Dose-response, AVE of Repeat 1-3 (Fig. 3 g) ([4]; Pro 200 μM): 0.07263 | Dose-response, AVE of Repeat 1-3 (Fig. 3 g) ([4]; Pro 500 μM): 0.09025 | Dose-response, AVE of Repeat 1-3 (Fig. 3 g) ([4]; Pro 1000 μM): 0.09711 | Dose-response, AVE of Repeat 1-3 (Fig. 3 g) ([4]; Pro 2000 μM): 0.09414 | Dose-response, AVE of Repeat 1-3 (Fig. 3 g) ([4]; Pro 4000 μM): 0.08171 | fluorescence response of GECFINDER to each substrate, AVE of 3 repeats [2]: -0.002038 | Wavelength scan, AVE of Repeat 1-3 (Fig. 3 h) ([3]; 0.0002 μM Pro): 1526 | Wavelength scan, AVE of Repeat 1-3 (Fig. 3 h) ([3]; 20 μM Pro): 1565 | Wavelength scan, AVE of Repeat 1-3 (Fig. 3 h) ([3]; 2000 μM Pro): 1543.33

EC50 (GECFINDER-SβF): 54.6 ± 7.66 µM
SMILES: N[C@H](CC(=O)O)c1ccccc1 [R-β-Phe, R-β-phenylalanine]

— publication PMC10590383, “Repurposing conformational changes in ANL superfamily enzymes to rapidly generate biosensors for organic and amino acids” (Nature Communications, 2023)
